# Target: T1, Progesterone receptor (Bos taurus, UniProt Q690N0)
# T1 sequence (Q690N0 whole entry): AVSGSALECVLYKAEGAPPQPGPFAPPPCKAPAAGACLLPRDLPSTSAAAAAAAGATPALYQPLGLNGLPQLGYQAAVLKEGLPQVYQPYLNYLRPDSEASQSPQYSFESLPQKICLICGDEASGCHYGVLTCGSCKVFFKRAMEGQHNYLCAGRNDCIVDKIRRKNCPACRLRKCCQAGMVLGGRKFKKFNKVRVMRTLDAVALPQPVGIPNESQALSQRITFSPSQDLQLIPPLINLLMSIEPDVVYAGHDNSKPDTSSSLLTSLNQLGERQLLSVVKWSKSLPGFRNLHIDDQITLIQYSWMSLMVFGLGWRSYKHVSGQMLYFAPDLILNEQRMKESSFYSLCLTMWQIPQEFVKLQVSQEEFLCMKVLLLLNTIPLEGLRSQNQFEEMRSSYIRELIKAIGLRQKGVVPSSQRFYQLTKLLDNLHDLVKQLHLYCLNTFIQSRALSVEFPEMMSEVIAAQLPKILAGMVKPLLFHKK
# Test: DRUGMATRIX: Progesterone radioligand binding (ligand: [3H] R-5020)
# Assay type: tissue-based, Uterus
# Conditions: Not Active = under 50% inhibition at 10 µM
row,Compound,IC50
1,O=P1(NCCCl)OCCCN1CCCl (configuration not stated) [IFOSFAMIDE],Not Active
2,Nc1nc(=O)[nH]cc1F [FLUCYTOSINE],Not Active
3,N#C[C@H](O[C@@H]1O[C@H](CO[C@@H]2O[C@H](CO)[C@@H](O)[C@H](O)[C@H]2O)[C@@H](O)[C@H](O)[C@H]1O)c1ccccc1 [AMYGDALIN],Not Active
4,CNC(=O)Oc1ccc2c(c1)[C@]1(C)CCN(C)[C@@H]1N2C [PHYSOSTIGMINE],Not Active

# Target: Matrix metalloproteinase-9 (Homo sapiens, UniProt P14780);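 note: inhibition of isolated MMP-9 enzyme activity toward a synthetic peptide substrate, from the DrugMatrix protease screening panel; in other assays of this panel Not Active means under 50% inhibition at 10 µM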
# Assay type: cell-based
# Conditions: not given
row,Compound,IC50
1,O=P1(NCCCl)OCCCN1CCCl (configuration not stated) [IFOSFAMIDE],Not Active
2,Nc1nc(=O)[nH]cc1F [FLUCYTOSINE],Not Active
3,N#C[C@H](O[C@@H]1O[C@H](CO[C@@H]2O[C@H](CO)[C@@H](O)[C@H](O)[C@H]2O)[C@@H](O)[C@H](O)[C@H]1O)c1ccccc1 [AMYGDALIN],Not Active
4,CNC(=O)Oc1ccc2c(c1)[C@]1(C)CCN(C)[C@@H]1N2C [PHYSOSTIGMINE],Not Active

# Tested on: not listed separately
# Test: DRUGMATRIX: Serotonin (5-Hydroxytryptamine) 5-HT3 radioligand binding (ligand: [3H] GR-65630)
# Assay type: cell membranes, Membrane
# Conditions: hek293; Not Active = under 50% inhibition at 10 µM
Compound,IC50,Ki
O=P1(NCCCl)OCCCN1CCCl (configuration not stated) [IFOSFAMIDE],Not Active,Not Active
Nc1nc(=O)[nH]cc1F [FLUCYTOSINE],Not Active,Not Active
N#C[C@H](O[C@@H]1O[C@H](CO[C@@H]2O[C@H](CO)[C@@H](O)[C@H](O)[C@H]2O)[C@@H](O)[C@H](O)[C@H]1O)c1ccccc1 [AMYGDALIN],Not Active,Not Active
CNC(=O)Oc1ccc2c(c1)[C@]1(C)CCN(C)[C@@H]1N2C [PHYSOSTIGMINE],Not Active,Not Active

# Target: Nitric oxide synthase 1 (Rattus norvegicus, UniProt P29476); note: in other assays of this panel Not Active means under 50% inhibition at 10 µM
# Sequence (P29476 whole entry): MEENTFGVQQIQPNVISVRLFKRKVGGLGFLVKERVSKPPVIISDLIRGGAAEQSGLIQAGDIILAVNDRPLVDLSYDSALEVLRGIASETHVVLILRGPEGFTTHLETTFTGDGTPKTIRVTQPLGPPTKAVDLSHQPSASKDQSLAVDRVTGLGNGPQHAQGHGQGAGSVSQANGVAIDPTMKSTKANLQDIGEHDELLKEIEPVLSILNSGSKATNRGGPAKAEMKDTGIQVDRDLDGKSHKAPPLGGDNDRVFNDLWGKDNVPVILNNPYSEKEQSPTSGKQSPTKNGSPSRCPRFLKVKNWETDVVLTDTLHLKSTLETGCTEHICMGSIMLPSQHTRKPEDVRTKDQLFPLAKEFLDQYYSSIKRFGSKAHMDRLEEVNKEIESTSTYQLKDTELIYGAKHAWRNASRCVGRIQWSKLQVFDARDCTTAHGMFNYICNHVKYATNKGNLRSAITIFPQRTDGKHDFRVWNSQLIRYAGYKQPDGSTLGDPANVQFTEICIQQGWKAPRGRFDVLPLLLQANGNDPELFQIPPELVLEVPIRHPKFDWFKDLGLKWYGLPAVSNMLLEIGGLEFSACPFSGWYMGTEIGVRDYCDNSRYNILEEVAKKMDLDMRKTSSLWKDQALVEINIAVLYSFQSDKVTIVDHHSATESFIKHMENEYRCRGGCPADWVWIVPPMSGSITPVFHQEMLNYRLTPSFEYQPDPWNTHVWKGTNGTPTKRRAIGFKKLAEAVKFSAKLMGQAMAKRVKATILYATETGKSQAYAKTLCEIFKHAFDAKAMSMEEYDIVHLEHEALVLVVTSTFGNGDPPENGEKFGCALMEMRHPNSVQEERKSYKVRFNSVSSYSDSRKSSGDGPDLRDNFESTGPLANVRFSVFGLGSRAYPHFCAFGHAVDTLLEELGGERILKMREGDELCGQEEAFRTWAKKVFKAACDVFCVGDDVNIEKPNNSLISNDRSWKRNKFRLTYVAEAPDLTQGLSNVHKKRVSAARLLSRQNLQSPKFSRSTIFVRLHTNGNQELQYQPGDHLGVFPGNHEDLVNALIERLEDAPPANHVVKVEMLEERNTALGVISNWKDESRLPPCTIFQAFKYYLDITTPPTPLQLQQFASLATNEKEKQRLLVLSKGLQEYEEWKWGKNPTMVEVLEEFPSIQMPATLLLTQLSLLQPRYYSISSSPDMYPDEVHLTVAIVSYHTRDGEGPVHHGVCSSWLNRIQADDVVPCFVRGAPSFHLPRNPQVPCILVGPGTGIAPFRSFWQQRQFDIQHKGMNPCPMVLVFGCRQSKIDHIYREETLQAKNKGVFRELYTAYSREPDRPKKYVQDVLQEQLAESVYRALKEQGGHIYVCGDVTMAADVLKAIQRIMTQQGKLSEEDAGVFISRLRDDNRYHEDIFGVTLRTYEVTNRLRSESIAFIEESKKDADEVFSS
# Assay type: tissue-based, Cerebellum
# Conditions: not given
row,Compound,IC50
1,O=P1(NCCCl)OCCCN1CCCl (configuration not stated) [IFOSFAMIDE],Not Active
2,Nc1nc(=O)[nH]cc1F [FLUCYTOSINE],Not Active
3,N#C[C@H](O[C@@H]1O[C@H](CO[C@@H]2O[C@H](CO)[C@@H](O)[C@H](O)[C@H]2O)[C@@H](O)[C@H](O)[C@H]1O)c1ccccc1 [AMYGDALIN],Not Active
4,CNC(=O)Oc1ccc2c(c1)[C@]1(C)CCN(C)[C@@H]1N2C [PHYSOSTIGMINE],Not Active

# Target: T2, Alpha-1A adrenergic receptor (Rattus norvegicus, UniProt P43140)
# T2 sequence (P43140 whole entry): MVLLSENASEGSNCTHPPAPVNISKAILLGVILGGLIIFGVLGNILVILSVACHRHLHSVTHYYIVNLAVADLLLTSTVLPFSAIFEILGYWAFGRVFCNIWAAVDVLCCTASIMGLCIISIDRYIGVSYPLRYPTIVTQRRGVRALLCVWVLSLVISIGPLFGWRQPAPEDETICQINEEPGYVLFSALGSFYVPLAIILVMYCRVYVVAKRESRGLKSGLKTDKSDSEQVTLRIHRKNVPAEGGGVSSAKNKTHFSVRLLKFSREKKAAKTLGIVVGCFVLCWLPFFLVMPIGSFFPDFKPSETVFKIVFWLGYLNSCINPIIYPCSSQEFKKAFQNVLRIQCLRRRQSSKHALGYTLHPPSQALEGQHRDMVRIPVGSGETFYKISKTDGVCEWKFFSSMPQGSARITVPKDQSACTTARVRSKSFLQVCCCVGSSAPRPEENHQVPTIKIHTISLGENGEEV
# Test: DRUGMATRIX: Alpha-1A adrenergic receptor radioligand binding (ligand: prazosin)
# Assay type: cell membranes, Wistar, Submaxillary gland, Membrane
# Conditions: Not Active = under 50% inhibition at 10 µM
row,Compound,IC50
1,O=P1(NCCCl)OCCCN1CCCl (configuration not stated) [IFOSFAMIDE],Not Active
2,Nc1nc(=O)[nH]cc1F [FLUCYTOSINE],Not Active
3,N#C[C@H](O[C@@H]1O[C@H](CO[C@@H]2O[C@H](CO)[C@@H](O)[C@H](O)[C@H]2O)[C@@H](O)[C@H](O)[C@H]1O)c1ccccc1 [AMYGDALIN],Not Active
4,CNC(=O)Oc1ccc2c(c1)[C@]1(C)CCN(C)[C@@H]1N2C [PHYSOSTIGMINE],Not Active

# Target: T3, Muscarinic acetylcholine receptor M4 (Homo sapiens, UniProt P08173); note: in other assays of this panel Not Active means under 50% inhibition at 10 µM
# T3 sequence (P08173 whole entry): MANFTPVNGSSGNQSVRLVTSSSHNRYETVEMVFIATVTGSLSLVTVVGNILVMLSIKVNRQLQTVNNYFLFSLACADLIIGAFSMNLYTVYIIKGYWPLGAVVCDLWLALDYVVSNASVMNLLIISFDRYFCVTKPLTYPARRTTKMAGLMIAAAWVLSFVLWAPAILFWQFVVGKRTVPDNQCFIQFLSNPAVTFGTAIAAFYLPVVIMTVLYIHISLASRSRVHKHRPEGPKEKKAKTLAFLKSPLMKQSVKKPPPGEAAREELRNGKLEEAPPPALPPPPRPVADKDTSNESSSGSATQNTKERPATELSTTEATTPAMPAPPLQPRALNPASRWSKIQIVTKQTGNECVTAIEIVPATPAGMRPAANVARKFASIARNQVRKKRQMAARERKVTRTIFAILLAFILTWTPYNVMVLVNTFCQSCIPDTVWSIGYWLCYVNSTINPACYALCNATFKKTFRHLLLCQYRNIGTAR
# Assay type: cell membranes, CHO-K1, Membrane
# Conditions: cho-k1
row,Compound,IC50
1,O=P1(NCCCl)OCCCN1CCCl (configuration not stated) [IFOSFAMIDE],Not Active
2,Nc1nc(=O)[nH]cc1F [FLUCYTOSINE],Not Active
3,N#C[C@H](O[C@@H]1O[C@H](CO[C@@H]2O[C@H](CO)[C@@H](O)[C@H](O)[C@H]2O)[C@@H](O)[C@H](O)[C@H]1O)c1ccccc1 [AMYGDALIN],Not Active
4,CNC(=O)Oc1ccc2c(c1)[C@]1(C)CCN(C)[C@@H]1N2C [PHYSOSTIGMINE],Not Active

# Target: T4, B2 bradykinin receptor (Homo sapiens, UniProt P30411); note: in other assays of this panel Not Active means under 50% inhibition at 10 µM
# T4 sequence (P30411 whole entry): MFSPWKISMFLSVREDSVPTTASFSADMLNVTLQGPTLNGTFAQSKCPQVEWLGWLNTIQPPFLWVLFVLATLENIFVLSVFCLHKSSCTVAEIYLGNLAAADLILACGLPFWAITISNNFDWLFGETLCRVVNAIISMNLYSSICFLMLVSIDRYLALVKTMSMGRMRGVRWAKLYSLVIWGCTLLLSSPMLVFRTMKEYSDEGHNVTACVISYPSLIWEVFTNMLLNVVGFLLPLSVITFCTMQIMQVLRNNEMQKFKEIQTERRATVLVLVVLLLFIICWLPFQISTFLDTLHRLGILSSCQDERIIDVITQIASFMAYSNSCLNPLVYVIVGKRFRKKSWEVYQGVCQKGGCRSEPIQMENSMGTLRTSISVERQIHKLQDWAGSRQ
# Assay type: cell membranes, Membrane
# Conditions: chem-1
row,Compound,IC50
1,O=P1(NCCCl)OCCCN1CCCl (configuration not stated) [IFOSFAMIDE],Not Active
2,Nc1nc(=O)[nH]cc1F [FLUCYTOSINE],Not Active
3,N#C[C@H](O[C@@H]1O[C@H](CO[C@@H]2O[C@H](CO)[C@@H](O)[C@H](O)[C@H]2O)[C@@H](O)[C@H](O)[C@H]1O)c1ccccc1 [AMYGDALIN],Not Active
4,CNC(=O)Oc1ccc2c(c1)[C@]1(C)CCN(C)[C@@H]1N2C [PHYSOSTIGMINE],Not Active

# Target: Vascular endothelial growth factor receptor 1 (Homo sapiens, UniProt P17948); note: in other assays of this panel Not Active means under 50% inhibition at 10 µM
# Sequence (P17948 whole entry): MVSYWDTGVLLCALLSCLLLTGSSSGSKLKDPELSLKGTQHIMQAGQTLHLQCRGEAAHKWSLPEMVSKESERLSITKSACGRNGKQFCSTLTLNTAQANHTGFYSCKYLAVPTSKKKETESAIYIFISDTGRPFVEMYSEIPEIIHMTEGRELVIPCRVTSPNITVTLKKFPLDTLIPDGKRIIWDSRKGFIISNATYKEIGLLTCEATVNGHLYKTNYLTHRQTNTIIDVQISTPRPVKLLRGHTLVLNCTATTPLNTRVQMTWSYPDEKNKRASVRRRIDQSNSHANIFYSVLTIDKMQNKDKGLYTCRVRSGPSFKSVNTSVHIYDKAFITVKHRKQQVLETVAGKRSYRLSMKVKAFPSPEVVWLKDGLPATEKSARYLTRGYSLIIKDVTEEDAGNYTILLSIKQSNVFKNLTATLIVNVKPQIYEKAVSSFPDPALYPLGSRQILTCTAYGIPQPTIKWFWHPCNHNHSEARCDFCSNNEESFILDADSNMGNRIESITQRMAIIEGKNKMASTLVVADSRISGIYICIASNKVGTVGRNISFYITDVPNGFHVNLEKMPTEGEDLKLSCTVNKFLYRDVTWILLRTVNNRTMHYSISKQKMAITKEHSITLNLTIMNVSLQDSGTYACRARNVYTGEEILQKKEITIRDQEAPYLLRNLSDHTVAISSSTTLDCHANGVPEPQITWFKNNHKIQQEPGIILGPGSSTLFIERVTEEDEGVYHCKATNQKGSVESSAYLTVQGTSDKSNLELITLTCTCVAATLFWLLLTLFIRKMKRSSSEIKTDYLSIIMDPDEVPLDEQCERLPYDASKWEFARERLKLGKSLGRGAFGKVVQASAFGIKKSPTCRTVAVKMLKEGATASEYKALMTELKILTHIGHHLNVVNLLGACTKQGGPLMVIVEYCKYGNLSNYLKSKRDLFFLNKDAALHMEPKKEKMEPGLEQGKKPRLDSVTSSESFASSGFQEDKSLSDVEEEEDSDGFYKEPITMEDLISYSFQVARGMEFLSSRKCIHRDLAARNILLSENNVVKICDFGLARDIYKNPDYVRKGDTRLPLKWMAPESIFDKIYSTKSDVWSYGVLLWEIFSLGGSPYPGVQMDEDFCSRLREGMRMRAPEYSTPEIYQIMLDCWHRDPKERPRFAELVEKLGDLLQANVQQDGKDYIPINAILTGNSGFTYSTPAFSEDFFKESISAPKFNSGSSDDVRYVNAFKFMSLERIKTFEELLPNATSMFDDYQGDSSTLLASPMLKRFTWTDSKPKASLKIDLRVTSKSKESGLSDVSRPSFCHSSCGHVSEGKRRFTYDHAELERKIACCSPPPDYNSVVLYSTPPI
# Assay type: cell-based
# Conditions: huvec
row,Compound,IC50
1,O=P1(NCCCl)OCCCN1CCCl (configuration not stated) [IFOSFAMIDE],Not Active
2,Nc1nc(=O)[nH]cc1F [FLUCYTOSINE],Not Active
3,N#C[C@H](O[C@@H]1O[C@H](CO[C@@H]2O[C@H](CO)[C@@H](O)[C@H](O)[C@H]2O)[C@@H](O)[C@H](O)[C@H]1O)c1ccccc1 [AMYGDALIN],Not Active
4,CNC(=O)Oc1ccc2c(c1)[C@]1(C)CCN(C)[C@@H]1N2C [PHYSOSTIGMINE],Not Active

# Target: Delta-type opioid receptor (Homo sapiens, UniProt P41143); note: in other assays of this panel Not Active means under 50% inhibition at 10 µM
# Sequence (P41143 whole entry): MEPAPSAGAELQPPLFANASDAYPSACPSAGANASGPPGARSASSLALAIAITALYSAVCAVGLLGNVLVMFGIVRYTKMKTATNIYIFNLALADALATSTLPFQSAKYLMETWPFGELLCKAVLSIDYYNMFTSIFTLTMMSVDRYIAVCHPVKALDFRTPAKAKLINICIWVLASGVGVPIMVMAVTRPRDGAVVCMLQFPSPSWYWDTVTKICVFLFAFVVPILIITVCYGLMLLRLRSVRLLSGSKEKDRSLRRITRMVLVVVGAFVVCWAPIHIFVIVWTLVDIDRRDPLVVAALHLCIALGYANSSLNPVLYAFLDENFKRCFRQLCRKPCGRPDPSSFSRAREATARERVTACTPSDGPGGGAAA
# Assay type: cell membranes, HEK293, Membrane
# Conditions: hek293
row,Compound,IC50
1,O=P1(NCCCl)OCCCN1CCCl (configuration not stated) [IFOSFAMIDE],Not Active
2,Nc1nc(=O)[nH]cc1F [FLUCYTOSINE],Not Active
3,N#C[C@H](O[C@@H]1O[C@H](CO[C@@H]2O[C@H](CO)[C@@H](O)[C@H](O)[C@H]2O)[C@@H](O)[C@H](O)[C@H]1O)c1ccccc1 [AMYGDALIN],Not Active
4,CNC(=O)Oc1ccc2c(c1)[C@]1(C)CCN(C)[C@@H]1N2C [PHYSOSTIGMINE],Not Active

# Target: Sigma non-opioid intracellular receptor 1 (Homo sapiens, UniProt Q99720)
# Sequence (Q99720 whole entry): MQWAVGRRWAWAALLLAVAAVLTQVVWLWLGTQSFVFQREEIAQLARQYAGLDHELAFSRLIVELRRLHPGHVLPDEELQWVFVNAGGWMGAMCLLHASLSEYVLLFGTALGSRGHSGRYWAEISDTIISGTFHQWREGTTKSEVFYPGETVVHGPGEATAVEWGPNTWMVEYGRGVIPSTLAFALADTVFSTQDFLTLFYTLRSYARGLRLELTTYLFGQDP
# Test: DRUGMATRIX: Sigma1 radioligand binding (ligand: [3H] Haloperidol)
# Assay type: cell membranes, Jurkat, Membrane
# Conditions: jurkat; Not Active = under 50% inhibition at 10 µM
row,Compound,IC50
1,O=P1(NCCCl)OCCCN1CCCl (configuration not stated) [IFOSFAMIDE],Not Active
2,Nc1nc(=O)[nH]cc1F [FLUCYTOSINE],Not Active
3,N#C[C@H](O[C@@H]1O[C@H](CO[C@@H]2O[C@H](CO)[C@@H](O)[C@H](O)[C@H]2O)[C@@H](O)[C@H](O)[C@H]1O)c1ccccc1 [AMYGDALIN],Not Active
4,CNC(=O)Oc1ccc2c(c1)[C@]1(C)CCN(C)[C@@H]1N2C [PHYSOSTIGMINE],Not Active

# Target: Mitogen-activated protein kinase 14 (Homo sapiens, UniProt Q16539)
# Sequence (Q16539 whole entry): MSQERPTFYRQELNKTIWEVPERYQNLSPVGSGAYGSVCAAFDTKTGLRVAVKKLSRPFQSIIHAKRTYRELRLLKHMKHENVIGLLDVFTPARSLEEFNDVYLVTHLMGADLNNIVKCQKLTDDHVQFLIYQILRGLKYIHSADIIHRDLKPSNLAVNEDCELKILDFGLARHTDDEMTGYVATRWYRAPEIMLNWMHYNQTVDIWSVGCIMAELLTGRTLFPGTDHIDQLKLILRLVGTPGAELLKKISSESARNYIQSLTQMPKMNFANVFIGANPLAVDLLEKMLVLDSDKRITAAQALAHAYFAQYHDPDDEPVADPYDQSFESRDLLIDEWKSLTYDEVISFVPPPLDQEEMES
# Parameters: species or system Escherichia coli
# Conditions: not given
row,Compound,IC50
1,O=P1(NCCCl)OCCCN1CCCl (configuration not stated) [IFOSFAMIDE],Not Active
2,Nc1nc(=O)[nH]cc1F [FLUCYTOSINE],Not Active
3,N#C[C@H](O[C@@H]1O[C@H](CO[C@@H]2O[C@H](CO)[C@@H](O)[C@H](O)[C@H]2O)[C@@H](O)[C@H](O)[C@H]1O)c1ccccc1 [AMYGDALIN],Not Active
4,CNC(=O)Oc1ccc2c(c1)[C@]1(C)CCN(C)[C@@H]1N2C [PHYSOSTIGMINE],Not Active

# Target: Protein kinase C alpha type (Homo sapiens, UniProt P17252)
# Assay type: cell-based
# Conditions: sf9
row,Compound,IC50
1,O=P1(NCCCl)OCCCN1CCCl (configuration not stated) [IFOSFAMIDE],Not Active
2,Nc1nc(=O)[nH]cc1F [FLUCYTOSINE],Not Active
3,N#C[C@H](O[C@@H]1O[C@H](CO[C@@H]2O[C@H](CO)[C@@H](O)[C@H](O)[C@H]2O)[C@@H](O)[C@H](O)[C@H]1O)c1ccccc1 [AMYGDALIN],Not Active
4,CNC(=O)Oc1ccc2c(c1)[C@]1(C)CCN(C)[C@@H]1N2C [PHYSOSTIGMINE],Not Active

# Reference: ChEMBL document CHEMBL1909046, “DrugMatrix in vitro pharmacology data”
